# Paper PMC11513920, “Building Metabolically Stable and Potent Anti-HIV Thioether-Lipid Analogues of Tenofovir Exalidex: A thorough Pharmacological Analysis” (Journal of Medicinal Chemistry, 2024)
# Assays:
# HepaRG cells [1] = experiment: HepaRG cellular uptake; settings: for mean prodrug concentration in HepaRG cells: 20 µM; for HepaRG Cmax: 20 μM, HSA formulation 5:1, recorded after 3 h incubation
# From the text: (§1) Naturally, due the metabolic complexity of HepaRG cells, we specifically analyzed prodrug cellular uptake and stability, as represented by Cmax and intrinsic clearance (Clint,u) accordingly (Figure 7 and Table 9).
# (§2) The HepaRG cell line (HPRGC10, Thermo Fisher Scientific) was used to evaluate the cellular permeability and metabolic stability for select final compounds in vitro. The cells were initially thawed with working media composed of HepaRG Thaw, Plate, & General Purpose Medium Supplement (HPRG670), Williams Medium E (100 mL), and GlutaMax (1 mL), all purchased from Thermo Fisher Scientific. […] After the thawing medium was aspirated from each well, the cells were cultured for an additional 6 days with working media consisting of HepaRG Maintenance/Metabolism Medium Supplement (HPRG720), Williams Medium E (500 mL), and GlutaMax (1 mL), all purchased from Thermo Fisher Scientific. Upon completing the 7-day culture period, HepaRG cells were plated in enough wells to allow for duplicate analysis of prodrugs in two independent cellular uptake or metabolic stability experiments. All studied compounds were formulated with human serum albumin (HSA, 5:1 compound to HSA molar ratio) and subsequently diluted to a 20 μM final concentration with assay medium composed of serum-free INVITROGRO HI Medium and TORPEDO Antibiotic Mix purchased from BioIVT. For cellular uptake determinations, the maintenance/metabolism medium was first aspirated from each well, and then the plated cells were spiked with 1.0 mL of test compound stock solution. Subsequently, the plate was incubated at 37 °C under 5% CO2 environment over the desired time course (seven data points/compound). Blank wells not treated with prodrug were included in assay runs as controls and initial time points (0 min). At each time point, the test compound solution was removed from the appropriate wells, and the plated cells were washed with 1.0 mL of DPBS twice. The HepaRG cells were then extracted with 500 μL of cold ISTD solution (1 μM 7-ethoxy-d5-coumarin in 70/30 MeOH/H2O), and the quenched aliquots were centrifuged at 15,000 g for 10 min at 4 °C. […] After obtaining prodrug Cmax and Tmax values from the cellular uptake assay, HepaRG metabolic stability was then assessed. Following the initial 7-day culture procedure, the maintenance/metabolism medium was aspirated from each well, and the plated cells were spiked with 1.0 mL of test compound stock solution. […] The test compound solution was then removed from each well and replaced with untreated dilution medium (i.e., serum-free INVITROGRO HI Medium and TORPEDO Antibiotic Mix), initializing the stability determination. The HepaRG plate was once more incubated at 37 °C under 5% CO2 atmosphere over the desired time course (nine data points/compound), and sample preparation and analysis were handled in identical fashion to cellular uptake experiments.
# [2] = system: HIV-1 subtype C strain MJ4; experiment: Single-cycle non-replicating HIV pseudoviral luciferase assay in HEK293T cells; settings: Human immunodeficiency virus 1, HEK-293T, read-out: HIV IC50
# Method: (§3) Second, HIV IC50 and cellular CC50 were determined with a pseudoviral, whole (HEK293T) cell, nonreplicative HIV assay, using the HIV-1 subtype C strain MJ4 (refer to Experimental Methods). To account for the unique amphiphilic properties of TXL and the novel HTP-based prodrugs, all compounds were formulated in a human serum albumin (HSA) solution (5:1 drug:protein).
# (§4) Assessment of cytotoxicity and antiviral activity of all final compounds in vitro was conducted according to previously reported procedures.[39] In summary, human embryonic kidney (HEK293T) cells maintained in high glucose (25 mM), Dulbecco’s modified Eagle’s medium (DMEM) supplemented with fetal bovine serum (10%), sodium pyruvate (1 mM), L-glutamine (2 mM), HEPES (25 mM), and gentamicin (50 μg/mL) were used for determinations. The cells were maintained in an incubator at 37 °C under 5% CO2 in a humidified atmosphere. For both cytotoxicity and antiviral screening, all compounds were evaluated in duplicate in at least two independent experiments. All final compounds were formulated with human serum albumin (HSA, 5:1 compound to HSA molar ratio) and subsequently diluted with complete DMEM to 200 μM. Fifty microliters of test compound serial dilutions (3-fold) were prepared in 96-well culture plates, after which 50 μL of HEK293T cells (2 × 10^4 cells/well) was added. […] Cytotoxicity was then assessed by quantifying cell viability using the CellTiter 96 Aqueous One Solution Cell Proliferation Assay (Promega, Madison, WI) or resazurin sodium salt (cat# R7017, Merck, Darmstadt, Germany).[61] […] Antiviral activity was then assessed using a single-cycle, nonreplicating, envelope deleted HIV pseudoviral in vitro assay.[62],[63] The assay relies on the introduction of the firefly luciferase gene into HEK293T cells through infection with HIV-like viral particles, containing Reverse Transcriptase (RT) and Integrase (IN) from the HIV-1 subtype C strain MJ4.[64] The expression of the luciferase in the cells is directly proportional to the level of infection by the HIV-like viral particles and can be used to assess the inhibition of HIV-1 RT and IN. To evaluate anti-HIV activity, 3-fold serial dilutions of all final compounds were prepared in 50 μL over the noncytotoxic concentration range (as determined from the cytotoxicity screens described above) in 96-well culture plates. HEK293T cells (2 × 10^4 cells/well) and HIV-like viral particles, standardized to produce a luminescence signal of 1 × 10^6 relative light units (RLUs) in the growth medium only control, were combined, and 50 μL was added to the wells containing serially diluted test compounds. […] The expression of luciferase was subsequently quantified by adding 100 μL of the Bright-Glo Luciferase Assay substrate (Promega, Madison, WI) to each well of the 96-well plates. After incubation at rt for 3 min, luminescence was quantified on the GloMax Explorer Multimode Microplate Reader (Promega, Madison, WI).
# HepaRG cells [3] = experiment: HepaRG cellular metabolic stability; settings: for HepaRG t1/2: after 3 h loading at 20 μM, 37 °C
# From the text: as §1, §2
# HEK293T cells = experiment: Cellular cytotoxicity (cell viability, CellTiter 96 or resazurin); settings: HEK293T cells, 48 h, compounds formulated with HSA (5:1)
# Method: as §3, §4
Structure (SMILES),mean prodrug concentration in HepaRG cells (HepaRG cells [1]; 0.5 h) [ng/mL],mean prodrug concentration in HepaRG cells (HepaRG cells [1]; 1 h) [ng/mL],mean prodrug concentration in HepaRG cells (HepaRG cells [1]; 2 h) [ng/mL],mean prodrug concentration in HepaRG cells (HepaRG cells [1]; 3 h) [ng/mL],mean prodrug concentration in HepaRG cells (HepaRG cells [1]; 5 h) [ng/mL],mean prodrug concentration in HepaRG cells (HepaRG cells [1]; 7 h) [ng/mL],HepaRG Cmax (HepaRG cells [1]) [ng/mL],IC50 [2] [µM],HepaRG t1/2 (HepaRG cells [3]) [min],"HepaRG Clint,u (HepaRG cells [3]; calculated from cellular t1/2) [μL/min/million cells]",CC50 (HEK293T cells) [µM]
C[C@H](Cn1cnc2c(N)ncnc21)OCP(=O)(O)OCCCSCCCCCCCCCCCCC1CCCCC1.N [16h],896.16,911.53,1178.12,1412.37,1533.37,1616.17,1412.4 ± 1.5,0.008 to 0.012,71.0 ± 0.4,17.8,47.5 ± 8.7
CCCCCCCCCCCCCCCCSCCCOP(=O)(O)CO[C@H](C)Cn1cnc2c(N)ncnc21.N [2a],467.27,530.17,676.9,827.97,1004.64,994.36,,,,,49.8 ± 2.9
C[C@H](Cn1cnc2c(N)ncnc21)OCP(=O)(O)OCCCSCCCCCCCCCCCCc1ccc(F)cc1.N [16g],124.04,162.75,178.18,209.81,203.98,229.08,209.8 ± 0.2,0.008 to 0.012,46.7 ± 0.3,,
